Patent US12116611B2, “Method of treating intellectual disability, autism and epilepsy associated with an IQSEC2 mutation and for identifying medicaments for treating the same” (TECHNION RESEARCH & DEVELOPMENT FOUNDATION LIMITED, priority 2018, dated 2024)
Values joined by “and” are separate entries in the source; they are usually repeats but may differ in a detail not shown here. Identical values can stand only once. “Also recorded” adds a separate entry of the source. Like-named read-outs stand apart in the source and are kept apart here.

Legend:
[1] = tested on: calmodulin-IQSEC2 interaction; experiment: Binding of luciferase-IQSEC2 to calmodulin-sepharose in vitro; design: species or system human; conditions: for EC50: read-out: Free calcium concentration for half-maximal binding of calcium-calmodulin to IQSEC2
Description: The binding of wild type and mutant IQSEC2 to calmodulin was assessed in vitro using calmodulin-sepharose (BioVision, Milipetas, CA). Extracts from stably transfected cells were prepared in either buffer A [50 mM Tris pH 7.5; 150 mM NaCl, 10 mg/ml BSA; 5 mM EGTA and 0.1% Triton X-100] or buffer B [10 mM Tris pH 7.5; 150 mM NaCl, 5 mM EGTA, 5% glycerol, 0.5% Triton X-100]. Extracts were clarified by centrifugation at 14000 rpm at 4° C. to remove insoluble debris and the amount of luciferase activity in the extract assessed using the Promega luciferase assay system and a Turner TD 20/20 luminometer. Extracts (10,000-100,000 luciferase units) were then incubated in buffer A or buffer B with or without CaCl2 in a total volume of 1 cc. The concentration of free calcium in the incubation conditions was calculated using the maxchelator algorithm (maxchelator.stanford.edu) which is based on the ionic strength, pH, temperature and dissociation constant of EGTA for calcium. The concentration of free calcium used in these studies ranged from 0.73 nM to 2 mM. 10 μl of calmodulin-sepharose was added to the incubation and mixed on a rotary apparatus for 3-4 hours. The calmodulin-sepharose was washed twice with binding buffer, resuspended in 100 μl of luciferase reagent lysis buffer and 20 μl was assessed for luciferase activity.
Investigation of this interaction in a cell-free system in vitro using luciferase tagged IQSEC2 and calmodulin coupled to sepharose allowed for the precise control of calcium concentration which is known to dramatically affect the conformation and interactions of calmodulin with other proteins. In this system luciferase activity associated with calmodulin sepharose was used a quantitative readout of the calmodulin-IQSEC2 interaction. The IQ motif is present in over 100 proteins and in some cases preferentially binds to calcium-calmodulin while in other cases it binds preferentially to calcium-free calmodulin (apocalmodulin) (Bahler and Rhoads, 2002). […] However, when the effect of calcium on the IQSEC2 calmodulin interaction was assessed, it was observed that calcium increased the binding of calmodulin to IQSEC2. Upon reviewing the buffers used by the research group in assessing binding of IQSEC2 to calmodulin, it was discovered that the concentration of Triton X-100 used in the binding and wash buffers was differed. […] Triton X-100 binds to most proteins via both hydrophobic and polar interactions [Singh and Kishore, 2006] and may thereby disrupt protein-protein interactions at high concentrations. […] The binding of wild type or A350V luciferase-IQSEC2 to calmodulin was assessed over a wide range of calcium concentrations.

calmodulin = calmodulin (Homo sapiens, UniProt P0DP23); conditions: Persechini and Cronk et al, 1999; read-out: Kd of calcium for calmodulin; cited from earlier work
endogenous Arf6 = experiment: Arf6-GTP GGA3 pulldown assay in transfected HEK293T cells, with or without ionomycin; format: cell-based, human
Description: For the assessment of Arf6-GTP using a GGA-3 pulldown assay and western blot, HEK293T cells were transfected with FLAG-tagged WT, A350V, or R359C IQSEC2 in pCAGGS vector by calcium phosphate. Twenty-four hours after transfection, the cultures were treated with 5 μM ionomycin or ethanol vehicle for 5 mins, then lysed in 50 mM Tris-HCl, pH 7.5, 100 mM NaCl, 2 mM MgCl2, 0.2% SDS, 0.5% sodium deoxycholate, 1% Triton X-100, 10% glycerol, and 1× Halt protease inhibitor cocktail. An Arf6-GTP pull-down assay was carried out as described (Shoubridge et al, 2010). Briefly, lysates were cleared by centrifugation at 10,000 rpm for 10 min and incubated with GGA3:GST on glutathione-sepharose beads for 5 hours at 4° C. The beads were washed and bound proteins were eluted and probed by immunoblot with rabbit anti-Arf6 (1:750, Cell Signaling #5740). Lysates were also probed against total Arf6 and with rabbit anti-FLAG (1:1000; Covance #PRB-132P) to detect expression of FLAG-IQSEC2. Bands were visualized with the use of a LiCor Odyssey imaging system and quantified with Image Studio Lite. Each band was normalized to the untreated sham-transfected control. The data were statistically analyzed by one-way ANOVA followed by Tukey's Multiple Comparison Test for post-hoc analysis.
The activation of Arf6 (Arf6-GTP) by wild type, A350V, or R359C IQSEC2 in a GGA3 pulldown assay was also assessed. HEK 293T cells were transiently transfected with constructs to express either wild type, A350V or R359C IQSEC2, and endogenous Arf6 activation was tested with or without treatment with the calcium ionophore ionomycin. […] Cell lysates were incubated with beads coated with GGA3:GST to isolate the GTP-bound Arfs, and bound Arf6 was assessed by immunoblot (FIG. 4A).

Row | Compound | Change in binding of calmodulin to wild type IQSEC2 ([1]; 100 μM calcium, high (0.5%) Triton X-100) | Change in binding of calmodulin to wild type IQSEC2 ([1]; 100 uM calcium, low (0.1%) Triton X-100) | EC50 ([1]; A350V IQSEC2, 0.1% Triton X-100) [nM] | EC50 ([1]; wild type IQSEC2, 0.1% Triton X-100) [nM] | Kd (calmodulin) | Effect of ionomycin on Arf6 activation (endogenous Arf6; HEK293T cells transfected with A350V IQSEC2) | Effect of ionomycin on Arf6-GTP induction (endogenous Arf6; HEK293T cells transfected with R359C IQSEC2) | Arf6 activation (Arf6-GTP) compared to sham transfected cells (endogenous Arf6; HEK293T cells transfected with wild type IQSEC2, 5 μM ionomycin for 5 mins) [fold increase]
1 | [Ca+2] [calcium] | several fold decrease; also recorded: significant decrease | several fold increase; also recorded: significant increase | ~1000 | ~1000 | 1000 nM and ~1000 nM | – | – | –
2 | C[C@H](CCC(=O)O)C[C@H](C)C[C@H](C)C(=O)/C=C(\O)[C@H](C)C[C@H](C)C/C=C/[C@@H](C)[C@@H](O)[C@@H](C)[C@@H](O)C[C@@H]1CC[C@@](C)([C@H]2CC[C@@](C)([C@@H](C)O)O2)O1 [ionomycin] | – | – | – | – | – | did not further increase Arf6 activation | unresponsive | 8.03±1.89
